Assay results: ChEMBL document CHEMBL1201862, “PubChem BioAssay data set” (2004)
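The compound was tested at five concentrations on cells cultured in 96-well plates, with a 48-hour exposure period. The concentration for 50% growth inhibition is given as GI50.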 The source made the active and inactive calls. No stated cut-off is given here; in the data, active = GI50 up to about 1.1 µM and inactive = higher. Where a SMILES comes first, the peptide text is derived from it. [ ]: non-standard residue; d: D form. The star is where a group is joined. ξ: configuration not given here. ξPhe(4-NO2) = NC(Cc1ccc([N+](=O)[O-])cc1)C(=O)O; Boc = CC(C)(C)OC(=O)*; OBn = c1ccc(CO*)cc1

Legend:
Assay in all cases: NCI tumour cell line growth inhibition, 48 h
[1] = tested on: 786-0
[2] = tested on: A549
[3] = tested on: CAKI-1
[4] = tested on: CCRF-CEM
[5] = tested on: HL-60
[6] = tested on: HOP-62
[7] = tested on: IGROV-1
[8] = tested on: MDA-MB-231
[9] = tested on: MDA-MB-435
[10] = tested on: MDA-N
[11] = tested on: NCI-H460
[12] = tested on: NCI-H522
[13] = tested on: NCI/ADR-RES
[14] = tested on: OVCAR-3
[15] = tested on: OVCAR-4
[16] = tested on: RXF 393
[17] = tested on: SF-268
[18] = tested on: SK-OV-3
[19] = tested on: SR
[20] = tested on: UACC-62

Row | Compound | GI50 [1] | GI50 [2] | GI50 [3] | GI50 [4] | GI50 [5] | GI50 [6] | GI50 [7] | GI50 [8] | GI50 [9] | GI50 [10] | GI50 [11] | GI50 [12] | GI50 [13] | GI50 [14] | GI50 [15] | GI50 [16] | GI50 [17] | GI50 [18] | GI50 [19] | GI50 [20]
1 | COc1ccc(N2C(=O)C3c4[nH]c5ccc(OCc6ccccc6)cc5c4C4CCC(c5ccccc5)CC4C3C2=O)cc1 (stereo not given) | 2.67 µM (inactive) | 9.64 µM (inactive) | 8.18 µM (inactive) | 4.2 µM (inactive) | 0.34 µM (active) | 3.37 µM (inactive) | 8.85 µM (inactive) | 6.35 µM (inactive) | 3.22 µM (inactive) | 22.6 µM (inactive) | 4.74 µM (inactive) | 7.43 µM (inactive) | 18.8 µM (inactive) | 57.9 µM (inactive) | 1.19 µM (inactive) | 6.49 µM (inactive) | 6.85 µM (inactive) | 4.98 µM (inactive) | 2.37 µM (inactive) | 6.95 µM (inactive)
2 | CN1CC2CN(Cc3ccccc3)CCN2c2cccnc21 (stereo not given) | 52.1 µM (inactive) | > 100 µM (inactive) | 93.1 µM (inactive) | 32.8 µM (inactive) | 29 µM (inactive) | > 100 µM (inactive) | 52.7 µM (inactive) | 97.1 µM (inactive) | 30.5 µM (inactive) | 38.6 µM (inactive) | 39.1 µM (inactive) | 28.8 µM (inactive) | 32.1 µM (inactive) | 41.1 µM (inactive) | 82.6 µM (inactive) | > 100 µM (inactive) | 54.3 µM (inactive) | > 100 µM (inactive) | 25.8 µM (inactive) | 68.4 µM (inactive)
3 | CC(C)(C)OC(=O)NC(Cc1ccc([N+](=O)[O-])cc1)C(=O)NCC(=O)OCc1ccccc1 (stereo not given) (Boc-[ξPhe(4-NO2)]-Gly-OBn) | 11.4 µM (inactive) | 47.4 µM (inactive) | 13.1 µM (inactive) | 13.9 µM (inactive) | 36.1 µM (inactive) | 17.3 µM (inactive) | > 100 µM (inactive) | 31.3 µM (inactive) | 16.9 µM (inactive) | 19.1 µM (inactive) | 21.9 µM (inactive) | 20.2 µM (inactive) | 42 µM (inactive) | 19 µM (inactive) | 25.9 µM (inactive) | 22.2 µM (inactive) | 19.5 µM (inactive) | 24.6 µM (inactive) | 31.6 µM (inactive) | 17 µM (inactive)
4 | C=C(C(=O)O[C@H]1C/C(C)=C/CC/C(CO)=C/[C@H]2C(=O)OC(=C)[C@H]12)C(O)CO (stereo not given in full) | 5.98 µM (inactive) | 22.9 µM (inactive) | 4.46 µM (inactive) | 1.67 µM (inactive) | 2.49 µM (inactive) | 24.5 µM (inactive) | 19.5 µM (inactive) | 17.9 µM (inactive) | 9.59 µM (inactive) | 11.7 µM (inactive) | 17.2 µM (inactive) | 1.68 µM (inactive) | 19.8 µM (inactive) | 6.76 µM (inactive) | 20.5 µM (inactive) | 8.28 µM (inactive) | 18.7 µM (inactive) | 18.5 µM (inactive) | 2.5 µM (inactive) | 17.5 µM (inactive)
5 | CC(=O)C1(c2ccccc2)CCN(Cn2sc3nc(C)cc(C)c3c2=O)CC1 | 16.9 µM (inactive) | 64.7 µM (inactive) | 35.9 µM (inactive) | 10.5 µM (inactive) | 18.7 µM (inactive) | 34.8 µM (inactive) | > 100 µM (inactive) | 33 µM (inactive) | 23.1 µM (inactive) | 19.8 µM (inactive) | 17.6 µM (inactive) | 12.4 µM (inactive) | 32 µM (inactive) | 37.5 µM (inactive) | 21.9 µM (inactive) | 20.8 µM (inactive) | 34.8 µM (inactive) | 76.4 µM (inactive) | 32.1 µM (inactive) | 28.9 µM (inactive)
6 | NC1CCCCC1NCCNC1CCCCC1N (stereo not given) | > 100 µM (inactive) | 28.8 µM (inactive) | 82.4 µM (inactive) | 36.4 µM (inactive) | > 100 µM (inactive) | 53.7 µM (inactive) | 75.7 µM (inactive) | > 100 µM (inactive) | > 100 µM (inactive) | > 100 µM (inactive) | > 100 µM (inactive) | > 100 µM (inactive) | > 100 µM (inactive) | > 100 µM (inactive) | 47.2 µM (inactive) | > 100 µM (inactive) | > 100 µM (inactive) | > 100 µM (inactive) | > 100 µM (inactive) | > 100 µM (inactive)
